# Assay results taken from paper PMC9254247, “Dual-sensitive antibacterial peptide nanoparticles prevent dental caries” (Theranostics, 2022).
# System: S. mutans UA159 biofilm
# Assay: Minimum biofilm inhibition concentration (MBIC50), MTT
# Assay type: cell-based, Streptococcus mutans
# Settings: 24 h
# Description: Characterization analysis of pHly -1 NPs at different pHs. The morphology of pHly-1 NPs at pH 4.5 and 7.0were analyzed by TEM and AFM, respectively 3,4. TEM images were taken by a Tecnai G2 F20 microscope with an accelerating voltage of 100 kV. The final concentration of TEM samples of pHly -1 NPs was 100 μM. An 8 μL TEM sample was pipetted onto the carbon-coated copper grid surface for 3 min and removed by filter paper. Then, 8 μ L of 2 wt % uranyl acetate was dripped onto the grid for staining 3 min. After removing the droplet with filter paper, the grid was dried in a desiccator before measurement. […]
# The secondary structure of pHly-1 NPs in different solutions at pH 4.5 and 7.0 was determined by Jasco-810 spectropolarimeter using 2 mm quartz slides at 25 °C.
# According to the method reported in the literature5 to prepare l iposome required in the secondary structure test. […] All spectra were recorded with a wavelength interval of 0.5 nm. […] In addition, Zeta (ζ ) potentials and hydrodynamic sizes of pHly-1 NPs were measured using a Zetasizer (Malvern Instruments, UK). […]
# RNA- seq Analysis. […] T he quality and quantity of the RNA were assessed by NanoDrop 2000/2000c (Thermo Scientific, Wilmington, DE, USA). RNA integrity number (RIN) was analyzed by Agilent 2100 Bioanalyzer (Agilent Technologies, Santa Clara, CA, USA). […] The cleaned reads were mapped to the S.mutans reference genome using Rockhooper26. […]
compound,measurement,setting,value
"[H]/N=C(\N/C(=N/[H])NCCCCCCNC(=N)NC(=N)Nc1ccc(Cl)cc1)Nc1ccc(Cl)cc1 [CHX, chlorhexidine]",MBIC50,"pH 5.5, BHI with 1% sucrose",0.6 µM
same,MBIC50,"pH 7.0, BHI with 1% sucrose",0.8 µM
